These results are taken from ChEMBL document CHEMBL1126445, “Acetylcholine-releasing agents as cognition enhancers. Structure-activity relationships of pyridinyl pendant groups on selected core structures” (1992).

The species named for the experiment is Rattus norvegicus. Kind of experiment: Compound was evaluated for its ability to enhance the release of acetylcholine in vitro by using [3H]choline in rat brain slice superfusion system. It is filed as functional.
With `O=C1c2cccc3cccc(c23)C1(Cc1ccccn1)Cc1ccccn1`, the Release was determined as 40%.

With `O=C1N(c2ccccc2)c2ccccc2C1(Cc1cccnc1)Cc1cccnc1`, the Release is 38%.

In the case of `O=C1CCc2ccccc2C1(Cc1ccccn1)Cc1ccccn1`, the Release is given as 25%.

Turning to `C=C1c2cccc3cccc(c23)C1(Cc1cccnc1)Cc1cccnc1`, the Release worked out at 21%.

Consider `c1ccc2c(c1)Oc1ccccc1C2(Cc1ccncc1)Cc1ccncc1`, for which the Release was found to be 91%.

In the case of `OC1c2cccc3cccc(c23)C1(Cc1ccccn1)Cc1ccccn1` (stereo unspecified), the Release came to 53%.

In the case of `O=C1N(c2ccccc2)c2ccccc2C1(Cc1ccccn1)Cc1ccccn1`, the Release was determined as 22%.

For `c1ccc(CC2(Cc3ccccn3)c3ccccc3Oc3ccccc32)nc1`, the Release is 24%.

Regarding `c1cncc(CC2(Cc3cccnc3)c3ccccc3Oc3ccccc32)c1`, the Release came out at 59%.

With `OC1c2cccc3cccc(c23)C1(Cc1ccncc1)Cc1ccncc1` (stereo unspecified), the Release is reported as 15%.

In the case of `O=C1c2cccc3cccc(c23)C1(Cc1cccnc1)Cc1cccnc1`, the Release was found to be 7%.

As for `C=C1c2cccc3cccc(c23)C1(Cc1ccncc1)Cc1ccncc1`, the Release is 97%.

On to `OC1c2cccc3cccc(c23)C1(Cc1cccnc1)Cc1cccnc1` (stereo unspecified), for which the Release was 29%.

`C=C1c2cccc3cccc(c23)C1(Cc1ccccn1)Cc1ccccn1`: the Release is 25%.

Consider `O=C1CCc2ccccc2C1(Cc1ccncc1)Cc1ccncc1`, for which the Release was determined as 36%.

Regarding `O=C1CCc2ccccc2C1(Cc1cccnc1)Cc1cccnc1`, the Release was 11%.

On to `O=C1c2cccc3cccc(c23)C1(Cc1ccncc1)Cc1ccncc1`, for which the Release came out at 70%.

Take `c1ccc2c(c1)Sc1ccccc1C2(Cc1ccncc1)Cc1ccncc1`: the Release is reported as 42%.

With `c1cncc(CC2(Cc3cccnc3)c3ccccc3Sc3ccccc32)c1`, the Release is 79%.

As for `c1ccc(CC2(Cc3ccccn3)c3ccccc3Sc3ccccc32)nc1`, the Release stood at 47%.

In the case of `O=C1N(c2ccccc2)c2ccccc2C1(Cc1ccncc1)Cc1ccncc1` [LINOPIRDINE], the Release amounted to 100%.
